This is an account of results in patent publication US7524869B2, “Taxanes having a C10 ester substituent” (Florida State University Research Foundation, Inc., priority 2000, dated 2009).

Where only a bound is given, the exact number is not on record here.

This assay relates to HCT116. The assay can be described thus: In vitro cytotoxicity measured by the cell colony formation assay. The assay is classed as cell-based. The settings on record: HCT116 cells, 72 h drug incubation, colonies counted after 7 days; ID50 = drug concentration producing 50% inhibition of colony formation; read-out: IN VITRO ID 50 (nm) HCT116. On the procedure:
In Vitro Cytotoxicity Measured by the Cell Colony Formation Assay
Four hundred cells (HCT116) were plated in 60 mm Petri dishes containing 2.7 mL of medium (modified McCoy's 5a medium containing 10% fetal bovine serum and 100 units/mL penicillin and 100 µg/mL streptomycin). The cells were incubated in a CO2 incubator at 37° C. for 5 h for attachment to the bottom of Petri dishes. The compounds identified in Example 2 were made up fresh in medium at ten times the final concentration, and then 0.3 mL of this stock solution was added to the 2.7 mL of medium in the dish. The cells were then incubated with drugs for 72 h at 37° C. At the end of incubation the drug-containing media were decanted, the dishes were rinsed with 4 mL of Hank's Balance Salt Solution (HBSS), 5 mL of fresh medium was added, and the dishes were returned to the incubator for colony formation. The cell colonies were counted using a colony counter after incubation for 7 days.

Turning to `CC(=O)O[C@@]12CO[C@@H]1C[C@H](O)[C@@]1(C)C(=O)[C@H](OC(=O)C3CC3)C3=C(C)[C@@H](OC(=O)[C@H](O)[C@@H](NC(=O)c4ccco4)c4ccco4)C[C@@](O)([C@@H](OC(=O)c4ccccc4)C12)C3(C)C` (stereo partly shown) [Compound 3866], the IC50 was < 1 nM.

As for `CC(=O)O[C@@]12CO[C@@H]1C[C@H](O)[C@@]1(C)C(=O)[C@H](OC(=O)C=C(C)C)C3=C(C)[C@@H](OC(=O)[C@H](O)[C@@H](NC(=O)OC(C)(C)C)c4ccsc4)C[C@@](O)([C@@H](OC(=O)c4ccccc4)C12)C3(C)C` (stereo partly shown) [Compound 2511], the IC50 was < 1 nM.

Take `CCCC(=O)O[C@H]1C(=O)[C@@]2(C)C([C@H](OC(=O)c3ccccc3)[C@]3(O)C[C@H](OC(=O)[C@H](O)[C@@H](NC(=O)c4ccco4)c4ccco4)C(C)=C1C3(C)C)[C@]1(OC(C)=O)CO[C@@H]1C[C@@H]2O` (stereo partly shown) [Compound 3686]: the IC50 is < 1 nM. In the case of `CC(=O)O[C@@]12CO[C@@H]1C[C@H](O)[C@@]1(C)C(=O)[C@H](OC(=O)C(C)C)C3=C(C)[C@@H](OC(=O)[C@H](O)[C@@H](NC(=O)OC(C)(C)C)c4ccsc4)C[C@@](O)([C@@H](OC(=O)c4ccccc4)C12)C3(C)C` (stereo partly shown) [Compound 2291], the IC50 is < 1 nM. Regarding `CCC(=O)O[C@H]1C(=O)[C@@]2(C)C([C@H](OC(=O)c3ccccc3)[C@]3(O)C[C@H](OC(=O)[C@H](O)[C@H](C=C(C)C)NC(=O)OC(C)(C)C)C(C)=C1C3(C)C)[C@]1(OC(C)=O)CO[C@@H]1C[C@@H]2O` (stereo partly shown) [Compound 0499], the IC50 was < 1 nM.

As to `CCC(=O)O[C@H]1C(=O)[C@@]2(C)C([C@H](OC(=O)c3ccccc3)[C@]3(O)C[C@H](OC(=O)[C@H](O)[C@@H](NC(=O)c4ccncc4)c4cccs4)C(C)=C1C3(C)C)[C@]1(OC(C)=O)CO[C@@H]1C[C@@H]2O` (stereo partly shown) [Compound 4207], the IC50 is < 10 nM. As to `C/C=C/C(=O)N[C@@H](c1ccoc1)[C@@H](O)C(=O)O[C@H]1C[C@@]2(O)[C@@H](OC(=O)c3ccccc3)C3[C@](C)(C(=O)[C@H](OC(=O)C4CC4)C(=C1C)C2(C)C)[C@@H](O)C[C@H]1OC[C@@]31OC(C)=O` (stereo partly shown) [Compound 4944], the IC50 was < 1 nM. The value for `C/C=C/C(=O)O[C@H]1C(=O)[C@@]2(C)C([C@H](OC(=O)c3ccccc3)[C@]3(O)C[C@H](OC(=O)[C@H](O)[C@@H](NC(=O)OC(C)(C)C)c4ccc([N+](=O)[O-])cc4)C(C)=C1C3(C)C)[C@]1(OC(C)=O)CO[C@@H]1C[C@@H]2O` (stereo partly shown) [Compound 2439] was < 10 nM; that for `CCC(=O)O[C@H]1C(=O)[C@@]2(C)C([C@H](OC(=O)c3ccccc3)[C@]3(O)C[C@H](OC(=O)[C@H](O)[C@@H](NC(=O)OC(C)(C)C)C(C)C)C(C)=C1C3(C)C)[C@]1(OC(C)=O)CO[C@@H]1C[C@@H]2O` (stereo partly shown) [Compound 0583] was < 10 nM; that for `CC(=O)OC12COC1CC(O)C1(C)C(=O)C(OC(=O)c3cccs3)C3=C(C)C(OC(=O)C(O)C(NC(=O)OC(C)(C)C)C(C)C)CC(O)(C(OC(=O)c4ccccc4)C21)C3(C)C` (stereo not shown) [Compound 1964] was < 10 nM.

For `CCC(=O)O[C@H]1C(=O)[C@@]2(C)C([C@H](OC(=O)c3ccccc3)[C@]3(O)C[C@H](OC(=O)[C@H](O)[C@@H](NC(=O)OC(C)(C)C)c4ccco4)C(C)=C1C3(C)C)[C@]1(OC(C)=O)CO[C@@H]1C[C@@H]2O` (stereo partly shown) [Compound 0536], the IC50 was < 1 nM. The value for `CC(=O)OC12COC1CC(O)C1(C)C(=O)C(OC(=O)c3cccs3)C3=C(C)C(OC(=O)C(O)C(C=C(C)C)NC(=O)OC(C)(C)C)CC(O)(C(OC(=O)c4ccccc4)C21)C3(C)C` (stereo not shown) [Compound 1879] was < 10 nM; that for `CCC(=O)O[C@H]1C(=O)[C@@]2(C)C([C@H](OC(=O)c3ccccc3)[C@]3(O)C[C@H](OC(=O)[C@H](O)[C@@H](NC(=O)OC(C)(C)C)c4cccnc4)C(C)=C1C3(C)C)[C@]1(OC(C)=O)CO[C@@H]1C[C@@H]2O` (stereo partly shown) [Compound 0517] was < 10 nM; that for `CCCC(=O)OC1C(=O)C2(C)C(O)CC3OCC3(OC(C)=O)C2C(OC(=O)c2ccccc2)C2(O)CC(OC(=O)C(O)C(NC(=O)OC(C)(C)C)C(C)C)C(C)=C1C2(C)C` (stereo not shown) [Compound 1031] was < 10 nM.

Turning to `C/C=C/C(=O)O[C@H]1C(=O)[C@@]2(C)C([C@H](OC(=O)c3ccccc3)[C@]3(O)C[C@H](OC(=O)[C@H](O)[C@@H](NC(=O)OC(C)(C)C)c4ccsc4)C(C)=C1C3(C)C)[C@]1(OC(C)=O)CO[C@@H]1C[C@@H]2O` (stereo partly shown) [Compound 2408], the IC50 is < 1 nM. For `CC(=O)O[C@@]12CO[C@@H]1C[C@H](O)[C@@]1(C)C(=O)[C@H](OC(=O)C(C)C)C3=C(C)[C@@H](OC(=O)[C@H](O)[C@@H](NC(=O)OC(C)(C)C)c4ccoc4)C[C@@](O)([C@@H](OC(=O)c4ccccc4)C12)C3(C)C` (stereo partly shown) [Compound 2273], the IC50 is < 1 nM. Consider `CC(=O)O[C@@]12CO[C@@H]1C[C@H](O)[C@@]1(C)C(=O)[C@H](OC(=O)C3CC3)C3=C(C)[C@@H](OC(=O)[C@H](O)[C@@H](NC(=O)OCC(C)C)C4CC4)C[C@@](O)([C@@H](OC(=O)c4ccccc4)C12)C3(C)C` (stereo partly shown) [Compound 5232], for which the IC50 was < 10 nM. As for `CC(=O)OC12COC1CC(O)C1(C)C(=O)C(OC(=O)c3ccco3)C3=C(C)C(OC(=O)C(O)C(NC(=O)OC(C)(C)C)c4ccsc4)CC(O)(C(OC(=O)c4ccccc4)C21)C3(C)C` (stereo not shown) [Compound 2173], the IC50 was < 1 nM. Regarding `CC(=O)OC12COC1CC(O)C1(C)C(=O)C(OC(=O)c3cccs3)C3=C(C)C(OC(=O)C(O)C(NC(=O)OC(C)(C)C)c4cccs4)CC(O)(C(OC(=O)c4ccccc4)C21)C3(C)C` (stereo not shown) [Compound 1900], the IC50 is < 1 nM. Take `CC(=O)O[C@@]12CO[C@@H]1C[C@H](O)[C@@]1(C)C(=O)[C@H](OC(=O)C(C)C)C3=C(C)[C@@H](OC(=O)[C@H](O)[C@@H](NC(=O)OC(C)(C)C)C(C)C)C[C@@](O)([C@@H](OC(=O)c4ccccc4)C12)C3(C)C` (stereo partly shown) [Compound 2306]: the IC50 was < 10 nM. Turning to `CCCC(=O)N[C@@H](c1ccco1)[C@@H](O)C(=O)O[C@H]1C[C@@]2(O)[C@@H](OC(=O)c3ccccc3)C3[C@](C)(C(=O)[C@H](OC(=O)CC)C(=C1C)C2(C)C)[C@@H](O)C[C@H]1OC[C@@]31OC(C)=O` (stereo partly shown) [Compound 3219], the IC50 was < 1 nM. As to `CCCC(=O)O[C@H]1C(=O)[C@@]2(C)C([C@H](OC(=O)c3ccccc3)[C@]3(O)C[C@H](OC(=O)[C@H](O)[C@@H](NC(=O)OC(C)(C)C)c4ccncc4)C(C)=C1C3(C)C)[C@]1(OC(C)=O)CO[C@@H]1C[C@@H]2O` (stereo partly shown) [Compound 0978], the IC50 is < 1 nM.

On to `C/C=C/C(=O)O[C@H]1C(=O)[C@@]2(C)C([C@H](OC(=O)c3ccccc3)[C@]3(O)C[C@H](OC(=O)[C@H](O)[C@@H](NC(=O)OC(C)(C)C)c4ccco4)C(C)=C1C3(C)C)[C@]1(OC(C)=O)CO[C@@H]1C[C@@H]2O` (stereo partly shown) [Compound 2379], for which the IC50 was < 1 nM.

`CCC(=O)O[C@H]1C(=O)[C@@]2(C)C([C@H](OC(=O)c3ccccc3)[C@]3(O)C[C@H](OC(=O)[C@H](O)[C@@H](NC(=O)c4cccnc4)c4cccs4)C(C)=C1C3(C)C)[C@]1(OC(C)=O)CO[C@@H]1C[C@@H]2O` (stereo partly shown) [Compound 4121]: the IC50 is < 10 nM.

Consider `CCC(=O)O[C@H]1C(=O)[C@@]2(C)C([C@H](OC(=O)c3ccccc3)[C@]3(O)C[C@H](OC(=O)[C@H](O)[C@@H](NC(=O)c4ccccc4)C(C)C)C(C)=C1C3(C)C)[C@]1(OC(C)=O)CO[C@@H]1C[C@@H]2O` (stereo partly shown) [Compound 0719], for which the IC50 is < 10 nM.
